Test results published in PMC12190736, “Development and In Vitro Characterization of [^3H]GMC-058 as Radioligand for Imaging Parkinsonian-Related Proteinopathies” (Cells, 2025).
Marks after values point to notes of the source that are not given here.

Test system: tissue microarrays (TMAs) from cases with different proteinopathies
Experiment: Autoradiography and emulsion autoradiography on tissue microarrays
Format: binding, human
Experimental: Tissue micro-arrays (TMAs), prepared from paraffin-embedded tissue from human post-mortem tissue as described in [14], were first de-paraffinized with two 1 h and one overnight incubation in Neo-Clear Xylene Substitute (Sigma-Aldrich, St. Louis, MO, USA) at 37 °C and then […] in three short incubations at RT with decreasing concentrations of ethanol before autoradiography with [^3H]GMC-058 was performed as described above. For the saturation binding autoradiography, duplicate slides of each TMA set were incubated with 0.3 nM to 200 nM [^3H]GMC-058. Adjacent sections were co-incubated with 5 μM of unlabeled GMC-044 to calculate NSB. The quantification of total and non-specific binding was performed via delineation of the ROIs on the whole core, except for MSA, where the ROI followed the areas in which the binding of [^3H]GMC-058 corresponded to areas with α-syn inclusions. Those cores that had imperfections or were incomplete were not included in the analysis, or only the area of remaining tissue that adhered to the glass slide was delineated. For the cores from the substantia nigra of PD patient cases, the cores selected for analysis were those containing α-syn inclusion, but no A-β deposits of pTau tangles. The information was collected from IHC analysis of adjacent TMA slides.
For high-resolution emulsion autoradiography, an autoradiography experiment with TMAs using 25 nM [^3H]GMC-058 was performed as described above. At the end of the 90 h exposure to the storage phosphor screen, slides were stored in a vacuum until dipping in a photoemulsion. In the dark, using a sodium lamp, Agar Scientific, AGP9284 type NTB emulsion was melted in a heated water bath and diluted (1:1) with ddH2O. The emulsion was poured into dipping chambers, and the slides were dipped and placed vertically to air-dry. When completely dry, the slides were placed in a light-tight slide box with desiccant and exposed at 4 C for 1–12 weeks. After exposure, the slides were developed in diluted Phenisol Developer for 2 min, rinsed in water, and fixed in hypam Fixer at 17 °C in a water bath. After rinsing in water, the slides were counterstained with Harris HTX, dehydrated in graded ethanol, cleared in Xylene, and mounted in Pertex. Images were taken using a 3D Histech P250 III scanner (3DHISTECH Kft. Hungary) at up to 15 focal layers with a distance of 0.2 μm.

Specific binding, mean (25 nM, TMAs, AD): 127 ** fmol/mg tissue equivalent
Specific binding, mean (25 nM, TMAs, CAA): 131 ** fmol/mg tissue equivalent
Specific binding, mean (25 nM, TMAs, CBD): 204 *** fmol/mg tissue equivalent
Specific binding, mean (25 nM, TMAs, MSA): 166 ** fmol/mg tissue equivalent
Displaceable (off-target) binding, mean (25 nM, TMAs, NDE (non-dementia elderly controls)): 70 fmol/mg tissue equivalent
Specific binding, mean (25 nM, TMAs, PD): 129 *** fmol/mg tissue equivalent
Specific binding, mean (25 nM, TMAs, PSP): 173 *** fmol/mg tissue equivalent
Displaceable (off-target) binding, mean (25 nM, TMAs, liver control): 57 fmol/mg tissue equivalent
SMILES: [3H]c1cc(N2CCN(c3ccc(NC(=O)C(C)(C)C)cc3)CC2)ccc1OC [[^3H]GMC-058, N-(4-(4-(4-methoxy-[3-3H]phenyl)piperazin-1-yl)phenyl)pivalamide]
Saturation binding autoradiography (0.3 nM to 200 nM, TMAs): specific binding did not reach saturation in any of the tissues
Specific binding versus displaceable binding in controls (25 nM, PD, MSA, CAA, AD, PSP and CBD, p < 0.01): significantly higher than the displaceable binding in controls
Co-localization of binding (high-resolution autoradiography) (25 nM, TMAs): co-localized with α-syn inclusions in PD and MSA, with dense Aβ plaques in CAA and AD, and with p-tau inclusions in PSP and CBD
